Laboratory results from patent publication US20240238212A1, “LIPID COMPOUNDS AND LIPID NANOPARTICLE COMPOSITIONS” (SUZHOU ABOGEN BIOSCIENCES CO., LTD., priority 2022, published 2024).
Several values for one entry are separate records, joined by “and”; a condition that tells them apart may be missing. Equal entries are not always repeated. Entries after “also recorded” stand apart in the source; their conditions may differ. Where two headings read alike, the source gives them in different places.

Key:
[1] = Apparent pKa of LNP formulations (TNS fluorescence assay); assay type: physicochemical; conditions: LNP formulation
Procedure, shortened: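 LNPs (cationic lipid/DSPC/cholesterol/DMG-PEG 50/10/38.5/1.5 mol %) diluted to 0.1 mg/mL total lipid in citrate/phosphate/borate/NaCl buffers spanning pH 3–9 with TNS. Fluorescence (ex 325, em 435 nm) read at room temperature; pKa taken as the pH at half-maximal intensity from sigmoidal fit.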

[2] = Lipid clearance study: lipid remaining in liver tissue by LC-MS/MS; conditions: mouse liver; for % Dose Remaining in Liver Tissue, 6 h: 6 h after 0.5 mg/kg i.v. bolus dose mRNA; for % Dose Remaining in Liver Tissue, 24 h: 24 h after 0.5 mg/kg i.v. bolus dose mRNA; for % Dose Remaining in Liver Tissue, 48 h: 48 h after 0.5 mg/kg i.v. bolus dose mRNA
Method: (§3) LNPs were injected into mice via the tail vein (ICR female, IV, 0.5 mg mRNA/kg), then mice were anesthetized under carbon dioxide at different time (e.g., 6 h, 24 h, and 48 h) after administration and sacrificed via cardiac puncture. Liver tissue were collected immediately, and then washed by ice-cold saline. Liver samples were weighed and homogenized in ice water bath by adding pre-chilled 20% methanol-water (v/v) at 2˜8° C. with the ratio of 1:5 (w/v). The homogenized tissue samples were stored in −90˜−60° C. freezer prior to analysis.
(§4) All liver tissue homogenate samples were allowed to thaw at room temperature. An aliquot of 50 μL of sample was added with 50 μL MgCl2 (2M), then added with ACN which contains of Verapamil, 5 ng mL-1 and Glibenclamide, 50 ng mL-1 and Diclofenac, 200 ng mL^−1 and Tolbutamide, 200 ng mL^−1 for protein precipitation, then centrifuged at 13000 rpm for 8 min. Then 100 μL of supernatant was added with 100 μL water, then vortexed well. An aliquot of 5 μL of the mixture was injected into the LC-MS/MS system.

[3] = Lipid nanoparticle size and polydispersity by dynamic light scattering; assay type: physicochemical; conditions: LNP comprising the compound
Procedure, shortened: (§1)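 Ribogreen fluorescence quantifies encapsulated mRNA and backscatter (173°) DLS sizes the particles. These are microfluidically mixed four-component LNPs in DPBS after dialysis.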

[4] = Encapsulation efficiency of lipid nanoparticles (Quant-it Ribogreen RNA assay); assay type: physicochemical; conditions: LNP comprising the compound
Procedure, shortened: as §1

[5] = test system: human erythropoietin (hEPO) mRNA expression; assay: Animal Study 1: hEPO mRNA LNPs i.v. in mice, serum EPO by ELISA; assay type: in vivo; conditions: female ICR mice, 0.5 mg/kg tail vein injection, blood e.g. 6 hours post administration; relative to MC3 LNP
Procedure, shortened: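 Female ICR mice aged 6-8 weeks received LNP-encapsulated hEPO mRNA at 0.5 mg/kg by tail-vein injection, with MC3 LNPs as positive control. Blood was sampled at set time points (e.g., 6 hours) and serum EPO quantified by ELISA. Values are expressed relative to MC3.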

[6] = test system: luciferase mRNA expression; assay: Animal Study 2: luciferase mRNA LNPs i.v. in mice, optical imaging; assay type: in vivo; conditions: female Balb/c mice, 0.25 mg/kg tail vein injection, e.g. 6 hours; relative to MC3 LNP
Method: (§2) Lipid nanoparticles comprising compounds in the following table encapsulating mRNA encoding luciferase were systemically administered to 6-8 week old female Balb/c mice (Charles River Lab, ZheJiang) at 0.25 mg/kg dose by tail vein injection and mice blood were sampled at specific time points (e.g., 6 hours) post administration. Optical imaging was performed using the IVIS Spectrum CT device (PerkinElmer Inc., Paris, France). The luminescence level was evaluated by an ROI applied to the injection site zone (Living Image software, PerkinElmer Inc., Paris, France). In addition to the aforementioned tested groups, lipid nanoparticles comprising dilinoleylmethyl-4-dimethylaminobutyrate (other names: DLin-MC3-DMA or MC3) encapsulating luciferase mRNA were similarly administered at the same dose to age and gender comparative groups of mice as a positive control.
Characteristics of tested lipid nanoparticles, including luciferase expression levels over MC3 measured from the tested group are listed in the table below.

[7] = test system: luciferase mRNA expression; assay: Animal Study 2: bioluminescence of dissected organs; assay type: in vivo, Balb/c mice
Method: as §2
Radiance of heart, liver, spleen, lung, kidney, brain and bone marrow were taken at 6 h after administration. The Dissected organs were placed on a black sheet and imaged with IVIS Spectrum CT (PerkinElmer, Hopkinton, MA). To quantify bioluminescence emission signal, identical regions of interest (ROI) were positioned to encircle each organ region, the imaging signal was quantitated as Total Flux [p/s].

[8] = mouse, in vivo
Method: as §3, §4

[9] = hEPO mRNA, cationic lipid/DSPC/cholesterol/PEG-lipid 50:10:38.5:1.5
[10] = dissected organ, 6 h after administration, 0.25 mg/kg i.v., ROI 1-3, 0.25 mg/kg

For `CCCCCCCCCCCOC(=O)CCCCCN(CCO)CCCOC(COC(=O)CCCCCCC)COC(=O)CCCCCCC` [Compound 8], the “Apparent pKa” value ([1]; TNS assay (Table 2)) was 6.992, the “% Dose Remaining in Liver Tissue, 6 h” value [2] was 1.274% and the “% Dose Remaining in Liver Tissue, 24 h” value [2] was 0.068%. For the same molecule, the “% Dose Remaining in Liver Tissue, 48 h” value [2] was 0%, the Polydispersity ([3]; hEPO mRNA) was 0.051 and the “Size (nm)” value [3, 9] was 95.24 nm. For the same molecule, the Encapsulation efficiency ([4]; hEPO mRNA) was 84.70% and the “EPO expression over MC3” value [5] was “C (≥0.1 and <1)”.

For `CCCCCCCC(=O)OCC(COC(=O)CCCCCCC)OCCCN(CCCOC(COC(=O)CCCCCCC)COC(=O)CCCCCCC)CCN(CCO)C1CCC1` [Compound 9], the “Apparent pKa” value ([1]; TNS assay (Table 2)) was 6.558, the “% Dose Remaining in Liver Tissue, 6 h” value [2] was 1.071% and the “% Dose Remaining in Liver Tissue, 24 h” value [2] was 0.089%. The “% Dose Remaining in Liver Tissue, 48 h” value [2] was 0%, the Polydispersity ([3]; hEPO mRNA) was 0.046 and the “Size (nm)” value [3, 9] was 111.6 nm. For the same molecule, the Encapsulation efficiency ([4]; hEPO mRNA) was 87.29% and the “EPO expression over MC3” value [5] was “A (≥2)”.

With `CCCCCCCCC(CCCCCC)COC(=O)CCCCCN(CCO)CCCCC(COC(=O)CCCCCCC)COC(=O)CCCCCCC` (centres unmarked) [Compound 10] the “Apparent pKa” value ([1]; TNS assay (Table 2)) was 6.624, the “% Dose Remaining in Liver Tissue, 6 h” value [2] was 0.981% and the “% Dose Remaining in Liver Tissue, 24 h” value [2] was 0.19%. The “% Dose Remaining in Liver Tissue, 48 h” value [2] was 0.038%, the Polydispersity ([3]; hEPO mRNA) was 0.084 and the “Size (nm)” value [3, 9] was 61.45 nm. For the same molecule, the Encapsulation efficiency ([4]; hEPO mRNA) was 91.36% and the “EPO expression over MC3” value [5] was “B (≥1 and <2)”.

For `CCCCCCCCC(CCCCCC)CNC(=O)CCCCCN(CCO)CCCCC(COC(=O)CCCCCCC)COC(=O)CCCCCCC` (centres unmarked) [Compound 11], the “% Dose Remaining in Liver Tissue, 6 h” value [2] was 3.1%, the “% Dose Remaining in Liver Tissue, 24 h” value [2] was 0.537% and the “% Dose Remaining in Liver Tissue, 48 h” value [2] was 0.139%. For the same molecule, the Polydispersity ([3]; hEPO mRNA) was 0.082, the “Size (nm)” value [3, 9] was 59.17 nm and the Encapsulation efficiency ([4]; hEPO mRNA) was 85.63%. The “EPO expression over MC3” value [5] was “D (<0.1)”.

With `CCCCCCCCCCCCCCCCCC(=O)OCCCCCCN(CCCCC(COC(=O)CCCCCCC)COC(=O)CCCCCCC)C1CC(O)C1` (centres unmarked) [Compound 57] the “luciferase expression over MC3” value [6] was “A (≥2)”, the “Apparent pKa” value ([1]; TNS assay (Table 3)) was 7.046 and the Polydispersity ([3]; luciferase mRNA) was 0.026. The “Size (nm)” value ([3]; luciferase mRNA) was 86.07 nm and the Encapsulation efficiency ([4]; luciferase mRNA) was 90.36%.

With `CCCCC/C=C\C/C=C\CCCCCCCC(=O)OCCCCCCN(CCCCC(COC(=O)CCCCCCC)COC(=O)CCCCCCC)C1CC(O)C1` (centres unmarked) [Compound 58] the “luciferase expression over MC3” value [6] was “A (≥2)”, the “Apparent pKa” value ([1]; TNS assay (Table 3)) was 6.948 and the Polydispersity ([3]; luciferase mRNA) was 0.053. The “Size (nm)” value ([3]; luciferase mRNA) was 81.27 nm and the Encapsulation efficiency ([4]; luciferase mRNA) was 89.76%.

For `CCCCCCCC(=O)OCC(CCCCN(CCCCC(COC(=O)CCCCCCC)COC(=O)CCCCCCC)CCCNc1c(N(CC)CCO)c(=O)c1=O)COC(=O)CCCCCCC` [Compound 60], the “luciferase expression over MC3” value [6] was “C (≥0.1 and <1)”, the “Apparent pKa” value ([1]; TNS assay (Table 3)) was 6.809 and the Polydispersity ([3]; luciferase mRNA) was 0.011. The “Size (nm)” value ([3]; luciferase mRNA) was 73.37 nm and the Encapsulation efficiency ([4]; luciferase mRNA) was 93.20%.

In the case of `CCCCCCCCSSCCOC(=O)CCCCCN(CCCCCO)CCCCC(COC(=O)CCCCCCC)COC(=O)CCCCCCC` [Compound 76], the “luciferase expression over MC3” value [6] is reported as “B (≥1 and <2)”, the “Apparent pKa” value ([1]; TNS assay (Table 3)) is reported as 6.762 and the Polydispersity ([3]; luciferase mRNA) is reported as 0.069. The “Size (nm)” value ([3]; luciferase mRNA) was 113.16 nm, the “Total Flux [p/s], Brain” value [7, 10] was 4.60E+06 p/s and 4.15E+06 p/s and 5.13E+06 p/s and the “Total Flux [p/s], Liver” value [7, 10] was 1.40E+09 p/s and 9.82E+08 p/s and 1.38E+09 p/s. For the same molecule, the “Total Flux [p/s], Lung” value [7, 10] was 5.18E+06 p/s and 5.48E+06 p/s and 4.33E+06 p/s, the “Total Flux [p/s], bone marrow” value [7, 10] was 2.09E+06 p/s and 3.07E+06 p/s and 2.94E+06 p/s and the “luciferase expression in organs (in words)” value ([7]; nanoparticle comprising the compound, organs 6 h after administration) was “significant transduction and luciferase expression were observed in liver and spleen; also recorded: high absolute expression in the heart, spleen, lung, kidney, brain”. It also gave an Encapsulation efficiency ([4]; luciferase mRNA) of 88.12%.

In the case of `CCCCC/C=C\C/C=C\CCCCCCCCC(CCCCCCCC/C=C\C/C=C\CCCCC)OC(=O)CCCN(C)C` [MC3, dilinoleylmethyl-4-dimethylaminobutyrate], the “% Dose Remaining in Liver Tissue, 6 h” value ([8]; 6 h) is reported as 69.39%, the “% Dose Remaining in Liver Tissue, 24 h” value ([8]; 24 h) is reported as 61.63% and the “% Dose Remaining in Liver Tissue, 48 h” value ([8]; 48 h) is reported as 52.47%.
